Measured values as given in patent US11491109B2, “Pharmaceutical compositions for basic or neutral, low molecular weight compounds” (Hoffmann-La Roche Inc., priority 2017, dated 2022).
≈ marks a conversion by molar mass, not a printed value.

test: Equilibrium solubility in EPO-solutions, 96-well SORESOS assay; type: physicochemical; conditions: 48 h, room temperature
Protocol: Polymer solutions were prepared by dissolving EPO (0.1%, 0.5%, 1%, 2%, 3%, 4%, 5% (w/w)) in deionized water and adjusting all solutions to pH 6.0 by hydrochloric acid and sodium hydroxide at 25° C. Solutions were checked carefully for absence of particles.
(§1) Solubility of compounds in EPO-solutions was determined by using a 96-well assay that was introduced to measure equilibrium solubility in parallel to a solid state analysis of the residual solid (SORESOS)^21 as described before.^22 In brief, APIs were dispensed using the powder-picking-method^23 in a 96-well flat bottom plate (Corning Inc., Durham, USA). Mixtures were agitated by head-over-head rotation for 48 h at room temperature after addition of stir bars and polymer solutions (150 μl). After mixing, the suspensions were carefully transferred into 96-well filter plates and the liquid and solid phase were separated by centrifugation. […] An isocratic flow (composition of the mobile phase is listed in Table 2) was applied for 0.3 min at a flow rate of 0.75 mL/min. […] Solid state analysis of residual solid was performed by X-ray powder diffraction (XRPD) using a STOE Stadi P Combi diffractometer with a primary Ge-monochromator (Cu Kα radiation), imaging plate position sensitive detector (IP-PSD), and a 96-well sample stage as described before.^21 The IP-PSD allowed simultaneous recording of the diffraction pattern on both sides of the primary beam which were summed up by the software STOE WinXPOW to reduce effects related to poor crystal orientation statistics. Samples were analyzed directly in the 96-well filter plate with an exposure time of 5 min per well.
as §1, with “After addition of stir bars and polymer solutions (150 μl), mixtures” for “Mixtures”, “temperature.” for “temperature after addition of stir bars and polymer solutions (150 μl).”, “7)” for “2)”

SMILES | EPO concentration at which solubility reached a plateau | EPO concentration of maximum solubility
COc1ccccc1OCCNCC(O)COc1cccc2[nH]c3ccccc3c12 (centres unmarked) [CVD, carvedilol] | 2 % EPO (w/w) | –
COC1=CC(=O)C[C@@H](C)[C@]12Oc1c(Cl)c(OC)cc(OC)c1C2=O [GFN, griseofulvin] | – | 2 % EPO (w/w)
CC(C)(C)c1ccc(C(O)CCCN2CCC(C(O)(c3ccccc3)c3ccccc3)CC2)cc1 (centres unmarked) [TFD, terfenadine] | 2 % EPO (w/w) | –

same assay, conditions: EPO 0.1%; vs adjusted solubility in water at pH 6.0

SMILES | Adjusted SE in EPO 0.1%
C(=C\c1ccccc1)/CN1CCN(C(c2ccccc2)c2ccccc2)CC1 [CNZ, Cinnarizine] | 2.7 (2.7)
COc1ccccc1OCCNCC(O)COc1cccc2[nH]c3ccccc3c12 (centres unmarked) [CVD, carvedilol] | 1.7
CC(C)(C)c1ccc(C(O)CCCN2CCC(C(O)(c3ccccc3)c3ccccc3)CC2)cc1 (centres unmarked) [TFD, terfenadine] | 2.5

same assay, conditions: EPO 0.1%; vs measured solubility in water

SMILES | Non-adjusted SE in EPO 0.1% (in brackets)
C(=C\c1ccccc1)/CN1CCN(C(c2ccccc2)c2ccccc2)CC1 [CNZ, Cinnarizine] | 2.7 (2.7)
COc1ccccc1OCCNCC(O)COc1cccc2[nH]c3ccccc3c12 (centres unmarked) [CVD, carvedilol] | 24.3
CC(C)(C)c1ccc(C(O)CCCN2CCC(C(O)(c3ccccc3)c3ccccc3)CC2)cc1 (centres unmarked) [TFD, terfenadine] | 16.0

same assay, conditions: EPO 0.1-5%, 48 h, room temperature

SMILES | course of solubility with polymer concentration
COC1=CC(=O)C[C@@H](C)[C@]12Oc1c(Cl)c(OC)cc(OC)c1C2=O [GFN, griseofulvin] | solubility decreased again and finally reached a kind of plateau

same assay, conditions: EPO 0.5%; vs adjusted solubility in water at pH 6.0

SMILES | Adjusted SE in EPO 0.5%
C(=C\c1ccccc1)/CN1CCN(C(c2ccccc2)c2ccccc2)CC1 [CNZ, Cinnarizine] | 10.3 (10.3)
COc1ccccc1OCCNCC(O)COc1cccc2[nH]c3ccccc3c12 (centres unmarked) [CVD, carvedilol] | 6.7
CC(C)(C)c1ccc(C(O)CCCN2CCC(C(O)(c3ccccc3)c3ccccc3)CC2)cc1 (centres unmarked) [TFD, terfenadine] | 6.6

same assay, conditions: EPO 0.5%; vs measured solubility in water

SMILES | Non-adjusted SE in EPO 0.5% (in brackets)
C(=C\c1ccccc1)/CN1CCN(C(c2ccccc2)c2ccccc2)CC1 [CNZ, Cinnarizine] | 10.3 (10.3)
COc1ccccc1OCCNCC(O)COc1cccc2[nH]c3ccccc3c12 (centres unmarked) [CVD, carvedilol] | 94.9
CC(C)(C)c1ccc(C(O)CCCN2CCC(C(O)(c3ccccc3)c3ccccc3)CC2)cc1 (centres unmarked) [TFD, terfenadine] | 43.2

same assay, conditions: EPO 1.0%; vs adjusted solubility in water at pH 6.0

SMILES | Adjusted SE in EPO 1.0%
C(=C\c1ccccc1)/CN1CCN(C(c2ccccc2)c2ccccc2)CC1 [CNZ, Cinnarizine] | 15.3 (15.3)
COc1ccccc1OCCNCC(O)COc1cccc2[nH]c3ccccc3c12 (centres unmarked) [CVD, carvedilol] | 6.9
CC(C)(C)c1ccc(C(O)CCCN2CCC(C(O)(c3ccccc3)c3ccccc3)CC2)cc1 (centres unmarked) [TFD, terfenadine] | 8.3

same assay, conditions: EPO 1.0%; vs measured solubility in water

SMILES | Non-adjusted SE in EPO 1.0% (in brackets)
C(=C\c1ccccc1)/CN1CCN(C(c2ccccc2)c2ccccc2)CC1 [CNZ, Cinnarizine] | 15.3 (15.3)
CC(C)(C)c1ccc(C(O)CCCN2CCC(C(O)(c3ccccc3)c3ccccc3)CC2)cc1 (centres unmarked) [TFD, terfenadine] | 54.0

same assay, conditions: EPO 2.0%; vs adjusted solubility in water at pH 6.0

SMILES | Adjusted SE in EPO 2.0%
C(=C\c1ccccc1)/CN1CCN(C(c2ccccc2)c2ccccc2)CC1 [CNZ, Cinnarizine] | 29.3 (29.3)
COc1ccccc1OCCNCC(O)COc1cccc2[nH]c3ccccc3c12 (centres unmarked) [CVD, carvedilol] | 10.7
CC(C)(C)c1ccc(C(O)CCCN2CCC(C(O)(c3ccccc3)c3ccccc3)CC2)cc1 (centres unmarked) [TFD, terfenadine] | 11.7

same assay, conditions: EPO 2.0%; vs measured solubility in water

SMILES | Non-adjusted SE in EPO 2.0% (in brackets)
C(=C\c1ccccc1)/CN1CCN(C(c2ccccc2)c2ccccc2)CC1 [CNZ, Cinnarizine] | 29.3 (29.3)
COc1ccccc1OCCNCC(O)COc1cccc2[nH]c3ccccc3c12 (centres unmarked) [CVD, carvedilol] | 152.3
CC(C)(C)c1ccc(C(O)CCCN2CCC(C(O)(c3ccccc3)c3ccccc3)CC2)cc1 (centres unmarked) [TFD, terfenadine] | 76.2

same assay, conditions: EPO 3.0%; vs adjusted solubility in water at pH 6.0

SMILES | Adjusted SE in EPO 3.0%
C(=C\c1ccccc1)/CN1CCN(C(c2ccccc2)c2ccccc2)CC1 [CNZ, Cinnarizine] | 37.3 (37.3)
COc1ccccc1OCCNCC(O)COc1cccc2[nH]c3ccccc3c12 (centres unmarked) [CVD, carvedilol] | 11.1
CC(C)(C)c1ccc(C(O)CCCN2CCC(C(O)(c3ccccc3)c3ccccc3)CC2)cc1 (centres unmarked) [TFD, terfenadine] | 15.3

same assay, conditions: EPO 3.0%; vs measured solubility in water

SMILES | Non-adjusted SE in EPO 3.0% (in brackets)
C(=C\c1ccccc1)/CN1CCN(C(c2ccccc2)c2ccccc2)CC1 [CNZ, Cinnarizine] | 37.3 (37.3)
COc1ccccc1OCCNCC(O)COc1cccc2[nH]c3ccccc3c12 (centres unmarked) [CVD, carvedilol] | 157.4
CC(C)(C)c1ccc(C(O)CCCN2CCC(C(O)(c3ccccc3)c3ccccc3)CC2)cc1 (centres unmarked) [TFD, terfenadine] | 99.3

same assay, conditions: EPO 4.0%; vs adjusted solubility in water at pH 6.0

SMILES | Adjusted SE in EPO 4.0%
C(=C\c1ccccc1)/CN1CCN(C(c2ccccc2)c2ccccc2)CC1 [CNZ, Cinnarizine] | 39.0 (39.0)
COc1ccccc1OCCNCC(O)COc1cccc2[nH]c3ccccc3c12 (centres unmarked) [CVD, carvedilol] | 10.6
CC(C)(C)c1ccc(C(O)CCCN2CCC(C(O)(c3ccccc3)c3ccccc3)CC2)cc1 (centres unmarked) [TFD, terfenadine] | 14.6

same assay, conditions: EPO 4.0%; vs measured solubility in water

SMILES | Non-adjusted SE in EPO 4.0% (in brackets)
C(=C\c1ccccc1)/CN1CCN(C(c2ccccc2)c2ccccc2)CC1 [CNZ, Cinnarizine] | 39.0 (39.0)
COc1ccccc1OCCNCC(O)COc1cccc2[nH]c3ccccc3c12 (centres unmarked) [CVD, carvedilol] | 150.9
CC(C)(C)c1ccc(C(O)CCCN2CCC(C(O)(c3ccccc3)c3ccccc3)CC2)cc1 (centres unmarked) [TFD, terfenadine] | 94.8

same assay, conditions: EPO 5.0%; vs adjusted solubility in water at pH 6.0

SMILES | Adjusted SE in EPO 5.0%
C(=C\c1ccccc1)/CN1CCN(C(c2ccccc2)c2ccccc2)CC1 [CNZ, Cinnarizine] | 37.0 (37.0)
COc1ccccc1OCCNCC(O)COc1cccc2[nH]c3ccccc3c12 (centres unmarked) [CVD, carvedilol] | 11.7
CC(C)(C)c1ccc(C(O)CCCN2CCC(C(O)(c3ccccc3)c3ccccc3)CC2)cc1 (centres unmarked) [TFD, terfenadine] | 14.0

same assay, conditions: EPO 5.0%; vs measured solubility in water

SMILES | Non-adjusted SE in EPO 5.0% (in brackets)
C(=C\c1ccccc1)/CN1CCN(C(c2ccccc2)c2ccccc2)CC1 [CNZ, Cinnarizine] | 37.0 (37.0)
COc1ccccc1OCCNCC(O)COc1cccc2[nH]c3ccccc3c12 (centres unmarked) [CVD, carvedilol] | 165.9
CC(C)(C)c1ccc(C(O)CCCN2CCC(C(O)(c3ccccc3)c3ccccc3)CC2)cc1 (centres unmarked) [TFD, terfenadine] | 91.2

test: Drug solubility in water (aqueous solubility); type: physicochemical; conditions: thermodynamic from solid, 24 h incubation, pH not adjusted, read-out: Solubility in water (standard deviation, n = 3)

SMILES | solubility at 24 h [µg/mL]
C(=C\c1ccccc1)/CN1CCN(C(c2ccccc2)c2ccccc2)CC1 [CNZ, Cinnarizine] | 1 (≈ 2.71 µM)
CC(C)(C)c1ccc(C(O)CCCN2CCC(C(O)(c3ccccc3)c3ccccc3)CC2)cc1 (centres unmarked) [TFD, terfenadine] | 2 (≈ 4.24 µM)

same assay, conditions: thermodynamic from solid, extrapolated to pH 6.0 by Henderson-Hasselbalch equation, read-out: Adjusted solubility at pH 6.0

SMILES | solubility at 24 h [µg/mL]
C(=C\c1ccccc1)/CN1CCN(C(c2ccccc2)c2ccccc2)CC1 [CNZ, Cinnarizine] | 1 (≈ 2.71 µM)
COc1ccccc1OCCNCC(O)COc1cccc2[nH]c3ccccc3c12 (centres unmarked) [CVD, carvedilol] | 71 (≈ 175 µM)
CC(C)(C)c1ccc(C(O)CCCN2CCC(C(O)(c3ccccc3)c3ccccc3)CC2)cc1 (centres unmarked) [TFD, terfenadine] | 13 (≈ 27.6 µM)

test: pKa via photometric titration (Roche internal data); type: physicochemical; conditions: measured via photometric titration; basic model compounds

SMILES | pKa
C(=C\c1ccccc1)/CN1CCN(C(c2ccccc2)c2ccccc2)CC1 [CNZ, Cinnarizine] | 7.8
COc1ccccc1OCCNCC(O)COc1cccc2[nH]c3ccccc3c12 (centres unmarked) [CVD, carvedilol] | 8.1
CC(C)(C)c1ccc(C(O)CCCN2CCC(C(O)(c3ccccc3)c3ccccc3)CC2)cc1 (centres unmarked) [TFD, terfenadine] | 9.1
